Consider eleven compounds from patent US5998477A, “Substituted methoxy benzylidene indenyl-acetic and propionic acids for treating patients with precancerous lesions” (Cell Pathways Inc., priority 1997, dated 1999).

One series relates to HT-29. The series is described as follows: Apoptosis/Necrosis by fluorescent microscopy (acridine orange and ethidium bromide). In kind it is cell-based, human. The protocol: (§1) Drug stock solutions were made in 100% DMSO then diluted with RPMI media for cell culture testing. All drug solutions were prepared fresh on the day of testing. The cultured cells were obtained at passage #118 and grown in RPMI media supplemented with 5% fetal calf serum, and 2 mM glutamine, 100 U/ml penicillin, 100 U/ml streptomycin, and 0.25 μg/ml amphotericin. The cultures were maintained in a humidified atmosphere of 95% air and 5% CO2 at 37° C. The cultures were passaged at preconfluent densities using a solution of 0.05% trypsin and 0.53 mM EDTA. All experiments involved HT-29 cells between passages 120 and 140, except for the compound of Example 29 which involved SW-480 cell line. Cells were plated at the following densities to obtain cultures used for the experiments: 500 cells/well for 96 well flat-bottom microtiter plates, 1×10^6 cells 2 per 25 cm^2 flask.
Apoptosis and necrosis were measured using an assay that allowed for the simultaneous measurement of both types of cell death based on morphological characteristics of apoptotic cells (i.e., condensed chromatin) and membrane permeability. Drug preparation and cell culture conditions were the same as for the SRB assay described above. Confluent cultures were established in 25 cm^2 flasks. The cultures were assayed for apoptosis and necrosis by fluorescent microscopy following labeling with acridine orange and ethidium bromide. Floating and attached cells were collected by trypsinization and washed three times in PBS. One ml aliquots of 1×10^6 cells were centrifuged (300 g). The pellet was resuspended in 25 μl media and 1 μl of a dye mixture containing 100 μg/ml acridine orange and 100 μg/ml ethidium bromide prepared in PBS and mixed gently. Ten μl of mixture was placed on a microscope slide and covered with a 22 mm^2 coversilp and examined under 40× dry objectives using epillumination and filter combination.
An observer blinded to the identity of the treatments scored at least 100 cells per sample. Apoptotic cells were identified by nuclear condensation of chromatin stained by the acridine orange or ethidium bromide, respectively. Necrotic cells were identified by uniform labelling of the cell with ethidium bromide.

Series [1] relates to DMBA-Induced Mammary Lesions in Organ Culture. The series is described as follows: Mouse mammary gland organ culture, DMBA-induced mammary lesions. In kind it is cell-based, mouse (BALB/c). As to conditions: vs. vehicle (DMSO), read-out: Percent Inhibition. The protocol:
The compound of Example No. 1 was also tested for its ability to inhibit the incidence of mammary lesions in an organ culture system. This mouse mammary gland organ culture technique has been successfully used by other investigators to study the effects of known cancer-chemopreventative agents such as retinoids and selenium.
Female BALB/c mice, 28 days old, were treated for nine days with a combination of 1 μg of estradiol and 1 mg of progesterone daily, in order to prime the glands to be responsive to hormones in vitro. The animals were sacrificed and thoracic mammary glands were excised aseptically and incubated for ten days in growth media supplemented with growth-promoting hormones: insulin, prolactin, and hydrocortisone, at 5 μg/ml each and aldosterone at 1 μg/ml. A twenty-four hour treatment of 7,12-dimethylbenz(a)anthracene (DMBA, 2 μg/ml) was carried out between days three and four to induce the formation of mammary lesions. Fully developed glands were deprived of prolactin, hydrocortisone, and aldosterone for 14 days, resulting in the regression of the glands but not the mammary lesions. […]
The extent of the area occupied by the mammary lesions was quantitated by projecting an image of the gland onto a digitation pad. […] The space covered by each of the unregressed structures was also outlined on the digitization pad and quantitated by the computer.

For series [2] the following is noted: background; cited from earlier work.
The next series deals with colonic polyps. As to conditions: patients taking the drug; cited from earlier work.
The conditions of series [3]: background; sulfoxide itself; cited from earlier work.
A further series relates to SW-480 cell line. The series is described as follows: Tumor cell growth inhibition, Sulforhodamine B (SRB) protein binding assay, SW-480. The class given is cell-based. As to conditions: Homo sapiens, SW480, 144 h, SW-480, six days exposure, read-out: Single Dose Percent Inhibition. The protocol: as §1
Tumor cell growth inhibition was assessed using the Sulforhodamine B (SRB) protein binding assay. In this assay, tumor cells were plated in 96-well plates and treated with drug-containing media for six days (continuous exposure). […] The dye was then solubilized, and the optical density of the resulting solution was determined on a 96-well plate reader. […]
For each experiment, an IC50 value was determined, if possible, and used for comparative purposes. […]

The next series has as its system prostaglandin synthesis. As to conditions: background; cited from earlier work.
Another series concerns precancerous lesions. The note with it: background; cited from earlier work.
For series [4] the following is noted: background; cited from earlier work. This is another data set of the same source.

“Also recorded” adds a separate entry of the source.

On to `COc1ccc(/C=C2/C(C)=C(CC(=O)O)c3cc(F)ccc32)c(OC)c1OC` [Example 7, (Z)-5-fluoro-2-methyl-1-(2,3,4-trimethoxybenzylidene)-3-indenyl-acetic acid], for which the “% Apoptotic Cells” value in the series with HT-29 (200 μM) is recorded as over 90%.

As to `COc1cc(/C=C2/C(C)=C(CC(=O)O)c3cc(F)ccc32)cc(OC)c1OC` [Example 1, (Z)-5-fluoro-2-methyl-1-(3,4,5-trimethoxybenzylidene)-3-indenyl-acetic acid], the inhibition at 10 µM in series [1] (10 μM) was found to be 50%. Further, the inhibition at 100 µM in series [1] (100 μM) is 100%. In the series on HT-29 (200 μM), the “% Apoptotic Cells” value was over 90%. In the case of `COc1ccc(/C=C2/C(C)=C(CC(=O)O)c3cc(F)ccc32)cc1` [Example 11, (Z)-5-fluoro-2-methyl-1-(4-methoxybenzylidene)-3-indenyl-acetic acid], the “% Apoptotic Cells” value in the series with HT-29 (200 μM) is on record as over 90%. As to `COc1cc(OC)c(/C=C2/C(C)=C(CC(=O)O)c3cc(F)ccc32)c(OC)c1` [Example 4, (Z)-5-fluoro-2-methyl-1-(2,4,6-trimethoxybenzyildene)-3-indenyl-acetic acid], the “% Apoptotic Cells” value in the series with HT-29 (200 μM) is recorded as over 90%. On to `CC1=C(CC(=O)O)c2cc(F)ccc2/C1=C\c1c(Cl)cccc1Cl` [Example 6, (Z)-5-fluoro-2-methyl-1-(2,6-dichlorobenzylidene)-3-indenyl-acetic acid], for which, in the series with HT-29 (200 μM), the “% Apoptotic Cells” value is 60% and the “% Necrotic Cells” value was determined as 40%.

On to `CC1=C(CC(=O)O)c2cc(F)ccc2/C1=C\c1ccc([S+](C)[O-])cc1` (stereo not drawn) [Sulindac], for which the metabolic conversion entry in [2] was “converted by liver enzymes to the corresponding sulfide; also recorded: metabolized to sulfone compound”. For the same compound, the effect on polyps entry with colonic polyps is reported as “Polyps virtually disappear”. Further, the anti-arthritic activity result in [3] is “believed to be inactive as an anti-arthritic agent”. In the case of `COc1cc(/C=C2/C(C)=C(CC(=O)O)c3cc(F)ccc32)cc(Br)c1OC` [Example 29, (Z)-5-fluoro-2-methyl-1-(3-bromo-4,5-dimethoxybenzylidene)-3-indenyl-acetic acid], the inhibition at 100 µM in the series on SW-480 cell line amounted to 80%. Regarding `COc1cc(OC)c(OC)cc1/C=C1/C(C)=C(CC(=O)O)c2cc(F)ccc21` [Example 8, (Z)-5-fluoro-2-methyl-1-(2,4,5-trimethoxybenzylidene)-3-indenyl-acetic acid], the “% Apoptotic Cells” value in the series on HT-29 (200 μM) is reported as over 90%. Turning to `CC1=C(CC(=O)O)c2cc(F)ccc2/C1=C\c1ccccc1` [Example 10, (Z)-5-fluoro-2-methyl-1-benzylidene-3-indenyl-acetic acid], the “% Apoptotic Cells” value in the series with HT-29 (300 μM) is on record as 90%. In the case of `CC1=C(CC(=O)O)c2cc(F)ccc2/C1=C\c1ccc(S(C)(=O)=O)cc1` [sulfone], the prostaglandin synthesis inhibition result in the series with prostaglandin synthesis is “inactive as an inhibitor of prostaglandin synthesis”. For the same compound, the “inhibition of precancerous lesions” value in the series on precancerous lesions was “active as an inhibitor of precancerous lesions”. `CSc1ccc(/C=C2/C(C)=C(CC(=O)O)c3cc(F)ccc32)cc1` [Sulindac Sulfide]: the side effects entry in [4] was “associated with the side effects of conventional NSAIDs”. Also, the prostaglandin synthesis inhibition result with prostaglandin synthesis is recorded as “active moiety as a prostaglandin synthesis inhibitor”.
